From patent US20250230226A1, “PLXDC1/PLXDC2 ACTIVATORS AND THEIR USE IN THE TREATMENT OF BLOOD VESSEL DISORDERS” (THE REGENTS OF THE UNIVERSITY OF CALIFORNIA, priority 2019, published 2025)

Tested on: LL/2 lung cancer tumor endothelial cells
Assay: Lung LL2 ex vivo model of tumor angiogenesis
Format: cell-based, mouse
Settings: for Cell death: drug treatment for two days, ratio of red area to total endothelial cell area; for 48 hrs (morphology observations): LL/2 tumor endothelial cells; for cytotoxicity at 40 µM / cytotoxicity at 20 µM: Mus musculus, Endothelial cell, 48 h, read-out: Cell death
Description: An ex vivo tumor angiogenesis model was developed to test the efficacy of anti-cancer candidate agents. The following protocol describes the Ex Vivo Tumor Angiogenesis Model.
• 1. The day before the experiment, all necessary tools were sprayed with 70% ethanol and sterilized under UV light overnight, including blade, dissecting and micro-dissecting scissors and […]. 24-well dishes were placed at 4° C. to pre-chill plates and Matrigel was thawed, 24 hours before tumor dissection. • 2. 70% ethanol was sprayed on working bench. Two sterile petri dishes were prepared with 10 ml sterile PBS. The following steps 3 and 4 are necessary for mouse tumor models. For fresh human tumor, steps 3 and 4 are skipped. • 3. The tumor-bearing mice were euthanized. 70% ethanol was sprayed on the mouse and the tumor was removed using sterilized dissecting tools (avoid the fur). The tumor was rinsed in petri dish with sterile PBS to remove ethanol and fur. The tumor was transferred to a new petri dish with PBS for dissection. The dish is placed on ice. • 4. Pre-chilled sterile pipet tips were used to seed regular Matrigel in 24 well plates on ice. Matrigel (30 μl) was dropped in the middle of each well without touching the edge of the well (avoid introducing bubbles if possible). • 5. The tumor was cut in halves using the sterile blade. Healthy tumor tissue that is not necrotic and is within the tumor capsule was identified and isolated. The healthy tumor tissue was cut into small pieces. For instance, a suitable size for the tumor tissue is 0.5 mm (H)×0.5 mm (L)×0.3 mm (D) with a total volume of 0.075 mm^3. • 6. Each tumor piece was gently transferred and embedded in the Matrigel drop in the 24-well plate. The embedded piece was placed in the bottom and middle of each Matrigel drop. The plate was kept on ice all the time. • 7. After seeding the tumor pieces, plates were incubated in a 37° C. cell culture incubator without medium for 10 minutes in order for the Matrigel to solidify. • 8. Endothelial Growth Medium (0.5 ml) was added to each well and incubated at 37° C. with 5% CO2. Treatment was not added until the new endothelial cells was grown out of the tumor or were larger than 3 mm in diameter. This usually takes 4 days for the LL2 Lewis lung cancer model and 7 days for the CT26 colon cancer model. For human tumor models, the growth time is typically 2-3 weeks, depending on the tumor type. Media was changed every 4 days during prolonged culture. Typically, when the tumor tissue grows to 2 mm in diameter, it was good for drug testing. A size of about 3 mm in diameter can make visualization easier. • 9. When the assay was ready to be analyzed for cell death (e.g., 48 hours after drug addition), the dye mixture was prepared by mixing 6 μl of green dye to stain live cells (5 mg/ml Fluorescein diacetate or FDA in DMSO) with 30 μl of red dye (2.5 mg/ml Propidium iodide or PI in PBS) to stain dead cells in an Eppendorf tube. The FDA dye needs to be stored frozen in a −20° C. freezer because it has a labile ester bond. • 10. 1 μl of the dye mixture was added to each well of the 24-well dish. It is usually preferred to do one 24-well dish at a time given the amount of time needed to take pictures (the green dye is not as stable in the cells in the long term). • 11. The dish was gently rocked a few times to mix the dye with the media in the wells and incubate the dish at 37° C. for 10 min (too long incubation can make the green signal too intense). • 12. Each well was washed with 0.5 ml of sterile PBS and then 0.5 ml of phenol red free SFM was added to each well. Alternatively 0.5 ml of regular Endothelial Cell Growth Media can be added to each well if this well needs to be continuously maintained after the experiment. • 13. An inverted microscope using the 2× objective lens was used to observe morphological changes in the experimental wells. • 14. […]

COc1ccc(S(=O)(=O)c2cnc3ccc(OC(F)(F)F)cc3c2NCCO)cc1OC [Compound 73]
Cell death (40 μm): 10%

CCc1ccc(S(=O)(=O)c2cnc3ccc(OC)cc3c2NN2CCN(C)CC2)cc1 [Compound 83]
48 hrs (morphology observations) (40 μm): 0
cytotoxicity at 40 µM: 20%

CCc1ccc(S(=O)(=O)c2cnc3ccc(OC(F)(F)F)cc3c2N2CCC(N(CC)CC)CC2)cc1 [Compound 103]
48 hrs (morphology observations) (20 μm): 0
Cell death (20 μm): 10%

CCc1ccc(S(=O)(=O)c2cnc3ccc(OC(F)(F)F)cc3c2NCCCCCO)cc1 [Compound 104]
48 hrs (morphology observations) (20 μm): 0
Cell death (20 μm): 20%

CCc1ccc(S(=O)(=O)c2cnc3ccc(OC(F)(F)F)cc3c2NN2CCCCC2)cc1 [Compound 105]
48 hrs (morphology observations) (20 μm): 0
Cell death (20 μm): 0%

CCc1ccc(S(=O)(=O)c2cnc3ccc(OC(F)(F)F)cc3c2NCc2ccncc2)cc1 [Compound 106]
48 hrs (morphology observations) (20 μm): 0
Cell death (20 μm): 5%

CCc1ccc(S(=O)(=O)c2cnc3ccc(OC(F)(F)F)cc3c2Nc2ccncc2)cc1 [Compound 107]
48 hrs (morphology observations) (20 μm): 0
Cell death (20 μm): 0%

CCc1ccc(S(=O)(=O)c2cnc3ccc(OC(F)(F)F)cc3c2-n2cccc2)cc1 [Compound 108]
48 hrs (morphology observations) (20 μm): 0
Cell death (20 μm): 0%

CCc1ccc(S(=O)(=O)c2cnc3ccc(OC(F)(F)F)cc3c2-n2cccn2)cc1 [Compound 109]
48 hrs (morphology observations) (20 μm): 0
Cell death (20 μm): 0%

CCc1ccc(S(=O)(=O)c2cnc3ccc(OC(F)(F)F)cc3c2NCCCCO)cc1 [Compound 111]
48 hrs (morphology observations) (20 μm): 0
Cell death (20 μm): 30%

COc1ccc(S(=O)(=O)c2cnc3ccc(OC(F)(F)F)cc3c2N2CCC(N3CCC(O)CC3)CC2)cc1 [Compound 113]
48 hrs (morphology observations) (20 μm): 0
cytotoxicity at 20 µM: 10%

COc1ccc(S(=O)(=O)c2cnc3ccc([N+](=O)[O-])cc3c2N2CCC(N3CCCCC3)CC2)cc1 [Compound 114]
48 hrs (morphology observations) (20 μm): 0
Cell death (20 μm): 5%

COc1ccc(S(=O)(=O)c2cnc3ccc(CC#N)cc3c2N2CCC(N3CCCCC3)CC2)cc1 [Compound 115]
48 hrs (morphology observations) (20 μm): 0
cytotoxicity at 20 µM: 10%

O=S(=O)(c1ccc(OC(F)(F)F)cc1)c1cnc2ccc(OC(F)(F)F)cc2c1N1CCC(N2CCCCC2)CC1 [Compound 120]
48 hrs (morphology observations) (20 μm): 0
cytotoxicity at 20 µM: 5%

COc1ccc(S(=O)(=O)c2cnc3cc(OC)c(OC)cc3c2N2CCC(N3CCCCC3)CC2)cc1OC [Compound 122]
48 hrs (morphology observations) (20 μm): 0
Cell death (20 μm): 10%

CCc1ccc(S(=O)(=O)c2cnc3ccc(OC(F)(F)F)cc3c2-n2cnnn2)cc1 [Compound 125]
48 hrs (morphology observations) (20 μm): * (50% or less of cells vesicularize in cell shape)
cytotoxicity at 20 µM: 10%

CCc1ccc(S(=O)(=O)c2cnc3ccc(OC(F)(F)F)cc3c2NN2CCOCC2)cc1 [Compound 126]
48 hrs (morphology observations) (20 μm): 0
Cell death (20 μm): 10%

CCOC(=O)c1ccc2ncc(S(=O)(=O)c3ccc(CC)cc3)c(-n3nnc4ccccc43)c2c1 [Compound 133]
Cell death (20 μm): 10%

CCOC(=O)c1ccc2ncc(S(=O)(=O)c3ccc(CC)cc3)c(-n3ccnc3)c2c1 [Compound 134]
48 hrs (morphology observations) (20 μm): **** (100% of endothelial cells vesicularize in cell shape and look flattened in morphology (indicating disintegration of the cell body))

CCOC(=O)c1ccc2ncc(S(=O)(=O)c3ccc(OC)cc3)c(-n3ccnc3)c2c1 [Compound 141]
48 hrs (morphology observations) (20 μm): **** (100% of endothelial cells vesicularize in cell shape and look flattened in morphology (indicating disintegration of the cell body))
Cell death (20 μm): 90%

CCOC(=O)c1ccc2ncc(S(=O)(=O)c3ccc(OC)cc3)c(-n3nnc4ccccc43)c2c1 [Compound 142]
48 hrs (morphology observations) (20 μm): **** (100% of endothelial cells vesicularize in cell shape and look flattened in morphology (indicating disintegration of the cell body))

CNC(=O)c1ccc2ncc(S(=O)(=O)c3ccc(OC)cc3)c(N3CCC(N4CCCCC4)CC3)c2c1 [Compound 143]
48 hrs (morphology observations) (40 μm): 0
cytotoxicity at 40 µM: 40%

CCCCOc1ccc(S(=O)(=O)c2cnc3ccc([S+](C)[O-])cc3c2N2CCC(N3CCCCC3)CC2)cc1 (stereo not shown) [Compound 167]
48 hrs (morphology observations) (20 μm): 0
Cell death (20 μm): 40%

CCCCOc1ccc(S(=O)(=O)c2cnc3ccc([S+](C)[O-])cc3c2N2CCC(N3CCC(O)CC3)CC2)cc1 (stereo not shown) [Compound 168]
48 hrs (morphology observations) (20 μm): 0
Cell death (20 μm): 10%

CCCCOc1ccc(S(=O)(=O)c2cnc3ccc(S(C)(=O)=O)cc3c2N2CCC(N3CCCCC3)CC2)cc1 [Compound 169]
48 hrs (morphology observations) (20 μm): 0
Cell death (20 μm): 40%

CCCCOc1ccc(S(=O)(=O)c2cnc3ccc(S(C)(=O)=O)cc3c2N2CCC(N3CCC(O)CC3)CC2)cc1 [Compound 170]
48 hrs (morphology observations) (20 μm): 0
Cell death (20 μm): 10%

CCOC(=O)c1ccc2ncc(S(=O)(=O)c3ccc(OC)cc3)c(N3CCC(N4CCN(C)CC4)CC3)c2c1 [Compound 171]
48 hrs (morphology observations) (40 μm): 0
Cell death (40 μm): 40%

CCCCOc1ccc(S(=O)(=O)c2cnc3ccc(C(=O)OCC)cc3c2N2CCC(N3CCN(C)CC3)CC2)cc1 [Compound 172]
48 hrs (morphology observations) (40 μm): **** (100% of endothelial cells vesicularize in cell shape and look flattened in morphology (indicating disintegration of the cell body))
Cell death (40 μm): 100%

CCOC(=O)c1ccc2ncc(S(=O)(=O)c3ccc(OC)cc3)c(N3CCC(N4CCCCCC4)CC3)c2c1 [Compound 173]
Cell death (40 μm): 50%

CCOC(=O)c1ccc2ncc(S(=O)(=O)c3ccc(OC)cc3)c(N3CCC(N4CCCC(O)C4)CC3)c2c1 (stereo not shown) [Compound 174]
48 hrs (morphology observations) (40 μm): 0
Cell death (40 μm): 30%

CCOC(=O)c1ccc2ncc(S(=O)(=O)c3ccc(OC)cc3)c(N3CCC(N4CCC(CO)CC4)CC3)c2c1 [Compound 175]
48 hrs (morphology observations) (40 μm): 0
Cell death (40 μm): 30%

CCCCOc1ccc(S(=O)(=O)c2cnc3ccc(C(=O)OCC)cc3c2N2CCC(N3CCCCCC3)CC2)cc1 [Compound 176]
48 hrs (morphology observations) (40 μm): *** (more than 50% but less than 100% of endothelial cells vesicularize in cell shape)
Cell death (40 μm): 100%

CCCCOc1ccc(S(=O)(=O)c2cnc3ccc(C(=O)OCC)cc3c2N2CCC(N3CCCC(O)C3)CC2)cc1 (stereo not shown) [Compound 177]
48 hrs (morphology observations) (40 μm): **** (100% of endothelial cells vesicularize in cell shape and look flattened in morphology (indicating disintegration of the cell body))
Cell death (40 μm): 100%

CCCCOc1ccc(S(=O)(=O)c2cnc3ccc(C(=O)OCC)cc3c2N2CCC(N3CCC(CO)CC3)CC2)cc1 [Compound 178]
48 hrs (morphology observations) (40 μm): **** (100% of endothelial cells vesicularize in cell shape and look flattened in morphology (indicating disintegration of the cell body))
Cell death (40 μm): 100%

CCOC(=O)c1ccc2ncc(S(=O)(=O)c3ccc(OC)cc3)c(N3CCCN(CCN4CCCCC4)CC3)c2c1 [Compound 179]
48 hrs (morphology observations) (10 μm): *** (more than 50% but less than 100% of endothelial cells vesicularize in cell shape)
Cell death (10 μm): 60%

CCOC(=O)c1ccc2ncc(S(=O)(=O)c3ccc(OC)cc3)c(N3CCCN(CCN4CCCC4)CC3)c2c1 [Compound 180]
48 hrs (morphology observations) (10 μm): *** (more than 50% but less than 100% of endothelial cells vesicularize in cell shape)
Cell death (10 μm): 70%
